Source: paper PMC5344255, “Design, Synthesis and Biochemical Evaluation of Novel Selective Estrogen Receptor Ligand Conjugates Incorporating an Endoxifen-Combretastatin Hybrid Scaffold” (Biomedicines, 2016)

Key:
Assay type in all cases: cell-based
[1] = tested on: MCF-7 human breast cancer cells; test: MTT assay for antiproliferative effects in MCF-7; conditions: for inhibition at 10 µM: MCF7, MCF-7, read-out: growth inhibition
Description: (§1) The human breast carcinoma cell line, MCF-7, was purchased from the European Collection of Animal Cell Cultures (ECACC). The cells were maintained in MCF-7 complete medium; consisting of Eagle’s Minimum Essential Medium (MEM) supplemented with 10% (v/v) Foetal Bovine Serum (FBS), 2 mM L-glutamine, 100 μg/mL penicillin/streptomycin and 1% (v/v) non-essential amino acids. Cell cultures were maintained at 37 °C under a humidified atmosphere of 5% CO2/95% O2. The human breast carcinoma cell line, MDA, was purchased from the European Collection of Animal Cell Cultures (ECACC). The cells were maintained in MDA complete medium; consisting of Dulbecco’s Modified Eagle’s Medium (D-MEM) supplemented with 10% (v/v) Foetal Bovine Serum (FBS), 2 mM L-glutamine, 100 μg/mL penicillin/streptomycin. Cell cultures were maintained at 37 °C under a humidified atmosphere of 5% CO2/95% O2. The MTT assay was performed according to the reported protocol. The tetrazolium salt, 3-(4,5-dimethylthiazol-2-yl)-2,5-diphenyltetrazolium bromide (MTT) is taken up only by metabolically active cells and cleaved to form a formazan dye by mitochondrial dehydrogenases. Assays where repeated in three experiments performed in triplicate (unless otherwise stated) and reported results represent the mean value ± standard error mean. Graphs of percentage cell viability versus concentration of the subject compound were processed using PRISM [31].

[2] = tested on: MCF-7 human breast cancer cells; test: Lactate dehydrogenase (LDH) cytotoxicity assay in MCF-7; conditions: % cell lysis at 10 µM
Description: (§2) In this assay, the release of cytoplasmic lactate dehydrogenase (LDH) is used as a measure of cell lysis. MCF-7 and MDA-MB-231 cells were seeded at a density of 1 × 10^4 cells/well in a 96-well plate and incubated for 24 h. The cells were then dosed with 2 μL volumes of the test compounds, over the concentration range 1 nM–50 μM. Cytotoxicity was determined using the CytoTox 96 nonradioactive cytotoxicity assay (Promega, Madison, WI, USA) following the manufacturer’s protocol.

[3] = tested on: MDA-MB-231 human breast cancer cells; test: Lactate dehydrogenase (LDH) cytotoxicity assay in MDA-MB-231; conditions: % cell lysis at 10 μM
Description: as §2

[4] = tested on: MDA-MB-231 human breast cancer cells; test: MTT assay for antiproliferative effects in MDA-MB-231; conditions: MDA-MB-231, MTT assay
Description: as §1, with “Cell cultures were maintained at 37 °C under a humidified atmosphere of 5% CO2/95% O2.” left out, “Assays where repeated in three experiments performed in triplicate (unless otherwise stated) and reported results represent the mean value ± standard error mean.” left out

[5] = Homo sapiens, MCF7, MCF-7, MTT assay, mean of at least three experiments in triplicate
[6] = MCF-7, MTT assay, mean of at least three experiments in triplicate
[7] = Homo sapiens, MCF7, MCF-7, MTT assay, values in nM

IC50 [1, 5] | IC50 [4] | SMILES | % Cell Death at 10 μM [2] | % Cell Death at 10 μM [3] | other results
> 50000 nM | – | COc1ccc(/C(=C\c2cc(OC)c(OC)c(OC)c2)C(=O)N2CCCC2)cc1 [Compound 48, (E)-2-(4-methoxyphenyl)-1-(pyrrolidin-1-yl)-3-(3,4,5-trimethoxyphenyl)prop-2-en-1-one] | – | – | –
– | – | COc1ccc(/C=C(/C(=O)N2CCCCC2)c2cc(OC)c(OC)c(OC)c2)cc1 [Compound 53, (E)-3-(4-Methoxyphenyl)-1-(piperidin-1-yl)-2-(3,4,5-trimethoxyphenyl)prop-2-en-1-one] | – | – | inhibition at 10 µM ([1]; Homo sapiens): 35%
64 nM | – | CCC(=C(c1ccc(O)cc1)c1ccc(OCCN(C)C(=O)/C(=C/c2ccc(SC)cc2)c2cc(OC)c(OC)c(OC)c2)cc1)c1ccc(O)cc1 (mixture of isomers) [Compound 40, (E)-N-(2-{4-[(E/Z)-1,2-Bis-(4-hydroxyphenyl)but-1-enyl]phenoxy}ethyl)-N-methyl-3-(4-methylsulfanylphenyl)-2-(3,4,5-trimethoxyphenyl)acrylamide] | 2% | – | –
120 nM | – | COc1ccc(/C=C(/C(=O)O)c2cc(OC)c(OC)c(OC)c2)cc1O [Compound 13] | – | – | –
– | – | COc1ccc(/C=C(/C(=O)N2CCCCC2)c2cc(OC)c(OC)c(OC)c2)cc1N [Compound 55, (E)-3-(3-Amino-4-methoxyphenyl)-1-(piperidin-1-yl)-2-(3,4,5-trimethoxyphenyl)prop-2-en-1-one] | – | – | inhibition at 10 µM ([1]; Homo sapiens): 34%
< 10000 nM | – | COc1ccc(/C=C(/C(=O)O)c2cc(OC)c(OC)c(OC)c2)cc1 [Compound 14] | – | – | IC50 [1, 6]: 7800 nM
3620 nM | 4.32 µM | CCC(=C(c1ccc(O)cc1)c1ccc(OCCN(C)C(=O)/C(=C/c2ccc3ccccc3c2)c2cc(OC)c(OC)c(OC)c2)cc1)c1ccc(O)cc1 (mixture of isomers) [Compound 36, (E)-N-(2-{4-[(E/Z)-1,2-Bis-(4-hydroxyphenyl)but-1-enyl]phenoxy}ethyl)-N-methyl-3-naphthalen-2-yl-2-(3,4,5-trimethoxyphenyl)acrylamide] | 3% | 0% | IC50 [1, 7]: 1.51 nM
> 50000 nM | – | COc1ccc(/C=C(/C(=O)N2CCCC2)c2cc(OC)c(OC)c(OC)c2)cc1 [Compound 52, (E)-3-(4-Methoxyphenyl)-1-(pyrrolidin-1-yl)-2-(3,4,5-trimethoxyphenyl)prop-2-en-1-one] | – | – | –
6150 nM | 49.7 µM | CCC(=C(c1ccc(O)cc1)c1ccc(OCCN(C)C(=O)/C(=C/c2ccc(OC)c(N)c2)c2cc(OC)c(OC)c(OC)c2)cc1)c1ccc(O)cc1 (mixture of isomers) [Compound 46, (E)-3-(3-Amino-4-methoxyphenyl)-N-(2-{4-[(E/Z)-1,2-bis-(4-hydroxyphenyl)but-1-enyl]phenoxy}ethyl)-N-methyl-2-(3,4,5-trimethoxyphenyl) acrylamide] | 6% | 0% | –
– | – | COc1ccc(/C(=C\c2ccc3c(c2)OCO3)C(=O)O)cc1 [Compound 25] | – | – | IC50 [1, 6]: > 50000 nM
372 nM | – | CCC(=C(c1ccc(O)cc1)c1ccc(OCCN(C)C(=O)/C(=C/c2ccc(C)cc2)c2cc(OC)c(OC)c(OC)c2)cc1)c1ccc(O)cc1 (mixture of isomers) [Compound 38, (E)-N-(2-{4-[(E/Z)-1,2-Bis-(4-hydroxyphenyl)but-1-enyl]phenoxy}ethyl)-N-methyl-3-p-tolyl-2-(3,4,5-trimethoxyphenyl)acrylamide] | 12% | – | –
49 nM | 0.68 µM | CCC(=C(c1ccc(O)cc1)c1ccc(OCCN(C)C(=O)/C(=C/c2ccc3c(c2)OCO3)c2ccc(OC)cc2)cc1)c1ccc(O)cc1 (mixture of isomers) [Compound 34, (E)-3-Benzo[1,3]dioxol-5-yl-N-(2-{4-[(E/Z)-1,2-bis-(4-hydroxyphenyl)but-1-enyl]phenoxy}ethyl)-2-(4-methoxyphenyl)-N-methylacrylamide] | 6% | 16% | –
– | 18 µM | CC/C(=C(\c1ccc(O)cc1)c1ccc(OCCN(C)C)cc1)c1ccccc1 [4-Hydroxytamoxifen, reference compound] | – | 0% | –
> 50000 nM | – | COc1ccc(/C=C(/C(=O)N2CCCCC2)c2cc(OC)c(OC)c(OC)c2)cc1O [Compound 49, (E)-3-(3-hydroxy-4-methoxyphenyl)-1-(piperidin-1-yl)-2-(3,4,5-trimethoxyphenyl)prop-2-en-1-one] | – | – | –
1470 nM | 5.23 µM | CCC(=C(c1ccc(O)cc1)c1ccc(OCCN(C)C(=O)/C(=C/c2ccc3c(c2)OCO3)c2ccc(OC)cc2)cc1)c1ccccc1 (mixture of isomers) [Compound 33, (E)-3-Benzo[1,3]dioxol-5-yl-N-(2-{4-[(E/Z)-1-(4-hydroxyphenyl)-2-phenylbut-1-enyl]phenoxy}ethyl)-2-(4-methoxyphenyl)-N-methylacrylamide] | 8% | 0% | –
> 50000 nM | – | COc1ccc(/C(=C\c2cc(OC)c(OC)c(OC)c2)C(=O)O)cc1 [Compound 23] | – | – | –
43 nM | 6.29 µM | CCC(=C(c1ccc(O)cc1)c1ccc(OCCN(C)C(=O)/C(=C/c2ccc(OC)cc2)c2cc(OC)c(OC)c(OC)c2)cc1)c1ccc(O)cc1 (mixture of isomers) [Compound 30, (E)-N-(2-{4-[(E/Z)-1,2-Bis-(4-hydroxyphenyl)but-1-enyl]phenoxy}ethyl)-3-(4-methoxyphenyl)-N-methyl-2-(3,4,5-trimethoxyphenyl)acrylamide] | 19% | 7% | –
790 nM | – | CCC(=C(c1ccc(O)cc1)c1ccc(OCCN(C)C(=O)/C(=C/c2ccc(SC)cc2)c2cc(OC)c(OC)c(OC)c2)cc1)c1ccccc1 (mixture of isomers) [Compound 39, (E)-N-(2-{4-[(E/Z)-1-(4-Hydroxyphenyl)-2-phenylbut-1-enyl]phenoxy}ethyl)-N-methyl-3-(4-methylsulfanylphenyl)-2-(3,4,5-trimethoxyphenyl) acrylamide] | 3% | – | –
1750 nM | – | CCC(=C(c1ccc(O)cc1)c1ccc(OCCN(C)C(=O)/C(=C/c2ccc(C)cc2)c2cc(OC)c(OC)c(OC)c2)cc1)c1ccccc1 (mixture of isomers) [Compound 37, (E)-N-(2-{4-[(E/Z)-1-(4-Hydroxyphenyl)-2-phenylbut-1-enyl]phenoxy}ethyl)-N-methyl-3-p-tolyl-2-(3,4,5-trimethoxyphenyl)acrylamide] | 2% | – | IC50 [1, 7]: 3.62 nM

SMILES | IC50 [1, 5] | IC50 [4] | % Cell Death at 10 μM [2] | % Cell Death at 10 μM [3] | other results
COc1ccc(/C=C(/C(=O)O)c2cc(OC)c(OC)c(OC)c2)cc1F [Compound 15] | 55100 nM | – | – | – | –
COc1ccc(/C=C(/C(=O)N2CCCC2)c2cc(OC)c(OC)c(OC)c2)cc1N [Compound 54, (E)-3-(3-Amino-4-methoxyphenyl)-1-(pyrrolidin-1-yl)-2-(3,4,5-trimethoxyphenyl)prop-2-en-1-one] | > 50000 nM | – | – | – | –
CCC(=C(c1ccc(O)cc1)c1ccc(OCCN(C)C(=O)/C(=C/c2ccc(OC)c(N)c2)c2cc(OC)c(OC)c(OC)c2)cc1)c1ccccc1 (mixture of isomers) [Compound 45, (E)-3-(3-Amino-4-methoxyphenyl)-N-(2-{4-[(E/Z)-1-(4-hydroxyphenyl)-2-phenylbut-1-enyl]phenoxy}ethyl)-N-methyl-2-(3,4,5-trimethoxyphenyl) acrylamide] | 959 nM | 7.11 µM | 8% | 0% | –
COc1ccc(/C=C\c2cc(OC)c(OC)c(OC)c2)cc1O [Compound 26, Combretastatin A-4, reference compound] | 8 nM | 0.043 µM | 13% | 4% | IC50 [1, 7]: 8 nM
